Common to all, as to type: biochemical
For test [1], the target named is T1, CDK6/cyclinD3 (Homo sapiens, UniProt Q00534).
T1 construct: purchased Carna Biosciences 04-107
The test can be described thus: Cyclin-dependent kinase activity assay (continuous ATP coupling assay), CDK6/cyclinD3. The following applies: CDK6/cyclinD3 25 nM, ATP 500 μM, Rb copeptide 500 μM, 15 min preincubation, pH 7.5, 1% DMSO. An outline of the steps:
(§1)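 PK/LDH-coupled continuous assay, ATP at each kinase's Km, Tris pH 7.5 with 1% DMSO final; enzyme preincubated 15 min with compound (10 μM to 0.05 nM, 1:3), NADH fluorescence decrease (ex 340/em 460) gave velocities. IC50 by 4-variable fit; Ki by quadratic/Morrison fit.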

Test [2] concerns the target T2, CDK4/cyclinD3 (Homo sapiens, UniProt P11802).
T2 construct: purchased Carna Biosciences 04-105
The test can be described thus: Cyclin-dependent kinase activity assay (continuous ATP coupling assay), CDK4/cyclinD3. Conditions: CDK4/cyclinD3 60 nM, ATP 500 μM, Rb copeptide 500 μM, 15 min preincubation, pH 7.5, 1% DMSO. An outline of the steps:
as §1

For test [3], the target named is T3, CDK1/cyclinB1 (Homo sapiens, UniProt P06493).
T3 construct: purchased Carna Biosciences 04-102
T3 sequence (P06493 whole entry): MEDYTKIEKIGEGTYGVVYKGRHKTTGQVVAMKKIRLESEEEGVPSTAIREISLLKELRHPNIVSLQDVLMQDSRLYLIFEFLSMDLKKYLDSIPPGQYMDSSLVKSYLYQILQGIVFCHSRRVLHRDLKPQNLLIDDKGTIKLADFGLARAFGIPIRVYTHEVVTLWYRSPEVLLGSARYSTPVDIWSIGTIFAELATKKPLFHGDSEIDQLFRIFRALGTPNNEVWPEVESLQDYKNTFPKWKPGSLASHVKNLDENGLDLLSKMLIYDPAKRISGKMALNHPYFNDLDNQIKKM
T3 sequence (P14635 whole entry partner): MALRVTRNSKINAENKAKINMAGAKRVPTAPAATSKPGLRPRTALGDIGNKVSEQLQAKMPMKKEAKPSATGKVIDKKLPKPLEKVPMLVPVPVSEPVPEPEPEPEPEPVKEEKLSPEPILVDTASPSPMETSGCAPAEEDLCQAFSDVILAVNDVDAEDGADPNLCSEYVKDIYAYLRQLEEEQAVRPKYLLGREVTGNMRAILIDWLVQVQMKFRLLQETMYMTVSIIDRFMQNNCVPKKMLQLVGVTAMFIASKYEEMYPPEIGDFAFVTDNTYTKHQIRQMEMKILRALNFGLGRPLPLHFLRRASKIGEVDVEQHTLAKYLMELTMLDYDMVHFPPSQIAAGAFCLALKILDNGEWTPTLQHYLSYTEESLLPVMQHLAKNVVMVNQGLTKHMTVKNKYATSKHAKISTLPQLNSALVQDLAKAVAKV
The test can be described thus: Cyclin-dependent kinase activity assay (continuous ATP coupling assay), CDK1/cyclinB1. The following applies: CDK1/cyclinB1 10 nM, ATP 200 μM, Histone1 copeptide 100 μM, 15 min preincubation, pH 7.5, 1% DMSO. In short, it runs like this:
as §1

Test [4] concerns the target T4, CDK2/cyclinE1 (Homo sapiens, UniProt P24941).
T4 construct: purchased Carna Biosciences 04-165
The test can be described thus: Cyclin-dependent kinase activity assay (continuous ATP coupling assay), CDK2/cyclinE1. The following applies: CDK2/cyclinE1 5 nM, ATP 300 μM, Rb copeptide 100 μM, 15 min preincubation, pH 7.5, 1% DMSO. An outline of the steps: as §1

This note sets out measurements from patent US20260308145A1, “CDK2 INHIBITORS AND METHODS OF USING SAME” (Shenzhen lonova Life Science Co., Ltd., priority 2023, published 2026).

Bounds are passed on as bounds.

T1 sequence (Q00534 whole entry): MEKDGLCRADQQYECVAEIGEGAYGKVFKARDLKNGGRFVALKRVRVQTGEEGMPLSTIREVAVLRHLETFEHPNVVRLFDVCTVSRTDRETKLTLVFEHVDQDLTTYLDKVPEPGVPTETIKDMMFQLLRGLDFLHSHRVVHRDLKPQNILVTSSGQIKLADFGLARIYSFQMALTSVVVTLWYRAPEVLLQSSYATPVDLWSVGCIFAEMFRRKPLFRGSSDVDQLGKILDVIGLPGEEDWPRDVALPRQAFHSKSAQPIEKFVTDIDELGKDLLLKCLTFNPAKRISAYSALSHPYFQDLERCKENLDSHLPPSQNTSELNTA
T1 sequence (P30281 whole entry partner): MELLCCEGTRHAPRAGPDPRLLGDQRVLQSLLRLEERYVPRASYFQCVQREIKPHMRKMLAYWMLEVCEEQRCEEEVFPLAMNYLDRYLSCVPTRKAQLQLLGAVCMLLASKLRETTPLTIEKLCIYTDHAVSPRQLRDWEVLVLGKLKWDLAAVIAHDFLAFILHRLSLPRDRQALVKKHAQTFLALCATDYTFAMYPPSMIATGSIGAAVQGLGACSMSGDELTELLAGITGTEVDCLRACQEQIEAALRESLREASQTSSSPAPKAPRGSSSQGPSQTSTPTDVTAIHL
T2 sequence (P11802 whole entry): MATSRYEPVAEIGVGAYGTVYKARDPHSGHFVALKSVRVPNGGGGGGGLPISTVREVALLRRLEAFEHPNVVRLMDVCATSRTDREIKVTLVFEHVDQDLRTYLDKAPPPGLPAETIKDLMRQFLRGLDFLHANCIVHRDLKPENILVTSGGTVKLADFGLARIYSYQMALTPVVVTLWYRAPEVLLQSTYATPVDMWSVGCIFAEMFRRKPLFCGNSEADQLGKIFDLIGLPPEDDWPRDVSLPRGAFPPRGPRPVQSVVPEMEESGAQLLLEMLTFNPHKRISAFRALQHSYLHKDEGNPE
T2 sequence (P30281 whole entry partner): as the sequence (P30281 whole entry partner) above

One may read the IC50 as the point on the concentration scale where inhibition reaches its midpoint. Turning to `CNS(=O)(=O)c1ccc(Nc2ncc(F)c(-n3cccn3)n2)cc1` [Example 21], the IC50 was at least 100 nM in test [1], at least 100 nM in test [2], at least 100 nM in test [3] and 10 to 100 nM in test [4].
Turning to `CNS(=O)(=O)c1ccc(Nc2ncc(C(F)(F)F)c(-n3cc(C[C@H](C)O)cn3)n2)cc1` (single isomer, unassigned) [Example 6], the IC50 in test [1] is 10 to 100 nM; in test [2], 10 to 100 nM; in test [3], 10 to 100 nM; in test [4], at most 10 nM.
Regarding `O=S(=O)(NC1(CO)CC1)c1ccc(Nc2ncc(C(F)(F)F)c(-n3cccn3)n2)cc1` [Example 135], the IC50 was at least 100 nM in test [1], at least 100 nM in test [2], at least 100 nM in test [3] and at most 10 nM in test [4].
Regarding `CNS(=O)(=O)c1ccc(Nc2ncc(F)c(-n3cc(CC(C)(C)O)cn3)n2)cc1` [Example 62], the IC50 in test [1] is at least 100 nM; in test [2], 10 to 100 nM; in test [3], at least 100 nM; in test [4], 10 to 100 nM.
`O=S1(=O)NCc2cc(Nc3ncc(C(F)(F)F)c(-n4cccn4)n3)ccc21` [Example 42, 1,1-dioxo-N-[4-pyrazol-1-yl-5-(trifluoromethyl)pyrimidin-2-yl]-2,3-dihydro-1,2-benzothiazol-5-amine]: the IC50 in test [1], in test [2], in test [3] and in test [4] was at least 100 nM each time.
With `CNS(=O)(=O)c1ccc(Nc2ncc(C(F)(F)F)c(-n3cc(CC(C)C)cn3)n2)cc1` [Example 48], the 50% inhibitory concentration (IC50) in test [1] is 10 to 100 nM; in test [2], at most 10 nM; in test [3], at least 100 nM; in test [4] it was 10 to 100 nM.
As for `CNS(=O)(=O)c1ccc(Nc2ncc(C(F)(F)F)c(-n3cc(C4CC4(F)F)cn3)n2)cc1` (single isomer, unassigned) [Example 52, 4-[[4-[4-(2,2-difluorocyclopropyl)pyrazol-1-yl]-5-(trifluoromethyl)pyrimidin-2-yl]amino]-N-methyl-benzenesulfonamide], the IC50 was 10 to 100 nM in test [1], at least 100 nM in test [2], at least 100 nM in test [3] and 10 to 100 nM in test [4].
`CNS(=O)(=O)c1ccc(Nc2ncc(C(F)(F)F)c(-n3cc(C[C@@H](C)O)cn3)n2)cc1` (single isomer, unassigned) [Example 5]: the IC50 was 10 to 100 nM in test [1], 10 to 100 nM in test [2], 10 to 100 nM in test [3] and at most 10 nM in test [4].
For the molecule `CNS(=O)(=O)c1ccc(Nc2ncc(C(F)(F)F)c(-n3cc(C4CCN(C)C4)cn3)n2)cc1` (single isomer, unassigned) [Example 96], the IC50 in test [1] is 10 to 100 nM; in test [2], 10 to 100 nM; in test [3] it was 10 to 100 nM; in test [4] it was at most 10 nM.
For the molecule `CC(C)(O)CCc1cnn(-c2nc(NC3CCN(S(C)(=O)=O)CC3)ncc2C(F)(F)F)c1` [Example 109], the IC50 in test [1] is 10 to 100 nM; in test [2], 10 to 100 nM; in test [3], at least 100 nM; in test [4], 10 to 100 nM.
In the case of `O=S(=O)(NCCO)c1ccc(Nc2ncc(C(F)(F)F)c(-n3cccn3)n2)cn1` [Example 136, N-(2-hydroxyethyl)-5-[[4-pyrazol-1-yl-5-(trifluoromethyl)pyrimidin-2-yl]amino]pyridine-2-sulfonamide], the IC50 is at least 100 nM in test [1], at least 100 nM in test [2], at least 100 nM in test [3] and at most 10 nM in test [4].
Turning to `CNS(=O)(=O)c1ccc(Nc2ncc(C(F)(F)F)c(-n3cc(N4CCN(C)CC4)cn3)n2)cc1` [Example 83], the IC50 in test [1] was at least 100 nM; in test [2], at least 100 nM; in test [3], at least 100 nM; in test [4], at most 10 nM.
For the molecule `CS(=O)(=O)Nc1ccc(Nc2ncc(C(F)(F)F)c(-n3cccn3)n2)cc1` [Example 120], the IC50 in test [1] was at least 100 nM; in test [2], at least 100 nM; in test [3], at least 100 nM; in test [4], 10 to 100 nM.
Regarding `CNS(=O)(=O)c1ccc(Nc2ncc(C(F)(F)F)c(-n3ccc(C4CC4)n3)n2)cc1` [Example 56], the IC50 in test [1], in test [2], in test [3] and in test [4] was at least 100 nM in each case.
Take `CC(C)(O)c1cnn(-c2nc(NC3CCN(S(C)(=O)=O)CC3)ncc2F)c1` [Example 1, 2-(1-(5-fluoro-2-((1-(methylsulfonyl)piperidin-4-yl)amino)pyrimidin-4-yl)-1H-pyrazol-4-yl)propan-2-ol]: the half-maximal inhibitory concentration (IC50) in test [1] was 10 to 100 nM; in test [2] it was 10 to 100 nM; in test [3] it was at least 100 nM; in test [4], 10 to 100 nM.
As for `CNS(=O)(=O)c1ccc(Nc2ncc(C(F)(F)F)c(-n3cc([C@H]4C[C@@H](O)C4)cn3)n2)cc1` [Example 103, 4-[[4-[4-(3-hydroxycyclobutyl)pyrazol-1-yl]-5-(trifluoromethyl)pyrimidin-2-yl]amino]-N-methyl-benzene sulfonamide], the IC50 in test [1] is 10 to 100 nM; in test [2], 10 to 100 nM; in test [3] it was 10 to 100 nM; in test [4], at most 10 nM.
`CNS(=O)(=O)c1ccc(Nc2ncc(C(F)(F)F)c(-n3cccn3)n2)cc1` [Example 16, N-methyl-4-[[4-pyrazol-1-yl-5-(trifluoromethyl)pyrimidin-2-yl]amino]benzene sulfonamide]: the IC50 in test [1] is at least 100 nM; in test [2], at least 100 nM; in test [3] it was at least 100 nM; in test [4], at most 10 nM.
For `CC(O)Cc1cnn(-c2nc(NC3CCN(S(C)(=O)=O)CC3)ncc2C(F)(F)F)c1` (single isomer, unassigned) [Example 108], the IC50 is 10 to 100 nM in test [1], 10 to 100 nM in test [2], at least 100 nM in test [3] and 10 to 100 nM in test [4].
For `CC(C)(O)Cc1cnn(-c2nc(N[C@H]3CCOC[C@@H]3O)ncc2C(F)(F)F)c1` (single isomer, unassigned) [Example 9], the IC50 in test [1], in test [2], in test [3] and in test [4] was at least 100 nM throughout.
In the case of `CNS(=O)(=O)c1ccc(Nc2ncc(C(F)(F)F)c(-n3cc(C4CN(C)C4)cn3)n2)cc1` [Example 97], the half-inhibitory concentration (IC50) in test [1] is at least 100 nM; in test [2], 10 to 100 nM; in test [3] it was 10 to 100 nM; in test [4] it was at most 10 nM.
On to `O=S(=O)(NCCCCO)c1ccc(Nc2ncc(C(F)(F)F)c(-n3cccn3)n2)cc1` [Example 113], for which the IC50 was at least 100 nM in test [1], at least 100 nM in test [2], at least 100 nM in test [3] and at most 10 nM in test [4].
Regarding `O=S(=O)(c1ccc(Nc2ncc(C(F)(F)F)c(-n3cccn3)n2)cc1)N1CCNCC1` [Example 37], the IC50 in test [1] was 10 to 100 nM; in test [2], 10 to 100 nM; in test [3] it was at least 100 nM; in test [4], at most 10 nM.
As for `CNS(=O)(=O)c1ccc(Nc2ncc(C(F)(F)F)c(-n3cc(C4CCNC4)cn3)n2)cc1` (single isomer, unassigned) [Example 93], the IC50 in test [1] is at least 100 nM; in test [2] it was 10 to 100 nM; in test [3], 10 to 100 nM; in test [4], at most 10 nM.
Consider `CNS(=O)(=O)c1ccc(Nc2ncc(C(F)(F)F)c(-n3cc(F)cn3)n2)cc1` [Example 45], for which the IC50 in test [1] was at least 100 nM; in test [2], at least 100 nM; in test [3], at least 100 nM; in test [4] it was 10 to 100 nM.
Regarding `CNS(=O)(=O)c1ccc(Nc2ncc(C)c(-n3cccn3)n2)cc1` [Example 22], the concentration for half-maximal inhibition (IC50) in test [1] was at least 100 nM; in test [2], at least 100 nM; in test [3], at least 100 nM; in test [4] it was 10 to 100 nM.
In the case of `CNS(=O)(=O)c1ccc(Nc2ncc(C#N)c(-n3cccn3)n2)cc1` [Example 26], the IC50 is at least 100 nM in test [1], at least 100 nM in test [2], at least 100 nM in test [3] and 10 to 100 nM in test [4].
For the molecule `O=S(=O)(NCCO)c1ccc(Nc2nccc(-n3cccn3)n2)cc1` [Example 118], the IC50 in test [1], in test [2], in test [3] and in test [4] was at least 100 nM each time.
Turning to `CNS(=O)(=O)c1ccc(Nc2ncc(Cl)c(-n3cc(CC(C)(C)O)cn3)n2)cc1` [Example 65], the IC50 in test [1] is 10 to 100 nM; in test [2] it was 10 to 100 nM; in test [3], 10 to 100 nM; in test [4], at most 10 nM.
`CN1CCN(S(=O)(=O)c2ccc(Nc3ncc(C(F)(F)F)c(-n4cccn4)n3)cc2)CC1` [Example 38]: the IC50 is at least 100 nM in test [1], at least 100 nM in test [2], at least 100 nM in test [3] and 10 to 100 nM in test [4].
Turning to `CNS(=O)(=O)c1ccc(Nc2ncc(C(F)(F)F)c(-n3cc(C4CCN(C(C)=O)CC4)cn3)n2)cc1` [Example 14], the IC50 in test [1] is at least 100 nM; in test [2], 10 to 100 nM; in test [3] it was at least 100 nM; in test [4], 10 to 100 nM.
With `CNS(=O)(=O)c1ccc(Nc2ncc(C(F)(F)F)c(-n3nccc3C3CC3)n2)cc1` [Example 57], the IC50 in test [1] is at least 100 nM; in test [2], at least 100 nM; in test [3], at least 100 nM; in test [4] it was 10 to 100 nM.
